Experimental data taken from patent US20250032524A1, “BROAD SPECTRUM AMINOGLYCOSIDES AND USES THEREOF” (REVAGENIX, INC., priority 2022, published 2025).
Like-named read-outs stand apart in the source and are kept apart here.

Key:
Assay type in all cases: cell-based
A. baumannii = test: MIC broth microdilution (CLSI); settings: Acinetobacter baumannii
Description: (§1) Minimum inhibitory concentrations for representative example compounds herein were determined by a broth microdilution method in accordance with the Clinical and Laboratory Standards Institute (CLSI) guidelines. In brief, organism suspensions were adjusted to a 0.5 McFarland standard to yield a final inoculum between 3×10^5 and 7×10^5 colony-forming units (CFU)/mL. The inoculum was prepared by suspension of a colony from an agar plate that was prepared the previous day. Compound dilutions and inoculum were prepared in sterile, cation adjusted Mueller-Hinton Broth (Beckton Dickinson).
(§2) Bacteria were suspended in sterile saline and added to each assay plate to obtain a final concentration of 5×10^5 CFU/mL. An inoculum volume of 100 μL was added to wells containing 100 μL of broth with 2-fold serial dilutions of the test compound. All inoculated microdilution trays were incubated in ambient air at 35° C. for 18-24 hours. Following incubation, the lowest concentration of the compound that prevented visible growth (OD 600 nm<0.05) is recorded was the MIC. […] Performance of the assay was monitored by the use of laboratory quality-control strains and a standard compound with a defined MIC spectrum (neomycin), in accordance with CLSI guidelines.

E. coli = test: MIC broth microdilution (CLSI); settings: Escherichia coli
Description: as §1, §2

K. aerogenes = test: MIC broth microdilution (CLSI); settings: Klebsiella aerogenes; strain AEAE1042, MDR Clinical isolate (CDC CRE panel), CDC AR Bank 0161
Description: as §1, §2

P. aeruginosa = test: MIC broth microdilution (CLSI); settings: Pseudomonas aeruginosa
Description: as §1, §2

P. mirabilis = test: MIC broth microdilution (CLSI); settings: Proteus mirabilis; strain APMI1048, MDR Clinical isolate (CDC CRE panel), CDC AR Bank 0159
Description: as §1, §2

S. enterica = test: MIC broth microdilution (CLSI); settings: Salmonella enterica, read-out: Activity (MIC)
Description: as §1, §2

[1] = system: clinical isolates of multi-drug resistant bacterial pathogens including A. baumannii, MRSA, P. aeruginosa, and CRE; test: MIC secondary panel, overall statement; settings: read-out: minimum inhibitory concentration (MIC) values
Description: as §1, §2
Several compounds of the disclosure (Compounds 1, 2, 3, and 6) were further evaluated against a secondary panel of clinical isolates of multi-drug resistant bacterial pathogens including A. baumannii, methicillin-resistant Staphylococcus aureus (MRSA), P. aeruginosa, and carbapenem-resistant Enterobacteriaceae (CRE).

C[C@H](N)[C@@H]1CC[C@@H](N)[C@@H](O[C@@H]2[C@@H](N)[C@H](O)[C@@H](NC(=O)[C@@H](O)CCN)[C@H](O)[C@H]2O[C@@H]2O[C@H](CO)[C@@H](O[C@H]3O[C@@H](CN)[C@@H](O)[C@H](O)[C@H]3N)[C@H]2O)O1 [Compound 6, (S)-4-Amino-N-((1R,2S,3S,4R,5R,6S)-3-Amino-4-(((2R,3R,6S)-3-Amino-6-((S)-1-Aminoethyl)Tetrahydro-2H-Pyran-2-Yl)Oxy)-5-(((2S,3R,4S,5R)-4-(((2R,3R,4R,5S,6S)-3-Amino-6-(Aminomethyl)-4,5-Dihydroxytetrahydro-2H-Pyran-2-Yl)Oxy)-3-Hydroxy-5-(Hydroxymethyl)Tetrahydrofuran-2-Yl)Oxy)-2,6-Dihydroxycyclohexyl)-2-Hydroxybutanamide]
MIC (A. baumannii; read-out: Activity (MIC), strain NABA0007, ΔadeJK efflux): < 16 µg/mL | MIC (A. baumannii; read-out: Activity (MIC), strain NABA1427, MDR Clinical isolate): < 16 µg/mL | MIC (A. baumannii; read-out: Activity (MIC), strain NABA1433, MDR Clinical isolate): < 16 µg/mL | MIC (A. baumannii; read-out: Activity (MIC), strain NABA1434, MDR Clinical isolate): < 16 µg/mL | MIC (A. baumannii; read-out: Activity (MIC), strain NABA1436, MDR Clinical isolate): < 16 µg/mL | MIC (A. baumannii; read-out: Activity (MIC), strain NABA1437, MDR Clinical isolate): < 16 µg/mL | MIC (A. baumannii; read-out: Activity (MIC), strain NABA1438, MDR Clinical isolate): < 16 µg/mL | MIC (A. baumannii; read-out: Activity (MIC), strain NABA1439, MDR Clinical isolate): < 16 µg/mL | MIC (A. baumannii; read-out: Activity (MIC), strain NABA1448, MDR Clinical isolate): < 16 µg/mL | MIC (A. baumannii; read-out: Activity (MIC), strain NABA1449, MDR Clinical isolate): < 16 µg/mL | MIC (A. baumannii; read-out: Activity (MIC), strain NABA1450, MDR Clinical isolate): < 16 µg/mL | MIC (A. baumannii; strain NABA0006, WT parent, read-out: Activity (MIC)): < 16 µg/mL | MIC (A. baumannii; strain NABA0020, AME negative strain, read-out: Activity (MIC)): < 16 µg/mL | MIC (E. coli; read-out: Activity (MIC), strain AECO1225, MDR Clinical isolate (CDC CRE panel), CDC AR Bank 0118): < 16 µg/mL | MIC (E. coli; read-out: Activity (MIC), strain AECO1226, MDR Clinical isolate (CDC CRE panel), CDC AR Bank 0119): < 16 µg/mL | MIC (E. coli; read-out: Activity (MIC), strain AECO1227, MDR Clinical isolate (CDC CRE panel), CDC AR Bank 0128): < 16 µg/mL | MIC (E. coli; read-out: Activity (MIC), strain NECO0003, ΔtolC): < 16 µg/mL | MIC (E. coli; read-out: Activity (MIC), strain NECO0245, ArmA): < 16 µg/mL | MIC (E. coli; strain NECO0001, WT QC, read-out: Activity (MIC)): < 16 µg/mL | MIC (E. coli; strain NECO0002, WT, read-out: Activity (MIC)): < 16 µg/mL | MIC (E. coli; strain NECO0243, empty vector, read-out: Activity (MIC)): < 16 µg/mL | MIC (E. coli; strain NECO0244, AAC(6')-Ib, read-out: Activity (MIC)): < 16 µg/mL | MIC (E. coli; strain NECO0289, APH(3')-Ia, read-out: Activity (MIC)): < 16 µg/mL | MIC (E. coli; strain NECO0302, AAC(3)-IIa, read-out: Activity (MIC)): < 16 µg/mL | MIC (E. coli; strain NECO0350, AAC(2')-I, read-out: Activity (MIC)): < 16 µg/mL | MIC (E. coli; strain NECO0359, ANT(4')-Ia, read-out: Activity (MIC)): < 16 µg/mL | MIC (K. aerogenes): < 16 µg/mL | MIC (P. aeruginosa; read-out: Activity (MIC), strain NPAE0006, Efflux KO, Aph(3')-IIb): < 16 µg/mL | MIC (P. aeruginosa; read-out: Activity (MIC), strain NPAE0010, MexXY over-expressed, Aph(3')-IIb): < 16 µg/mL | MIC (P. aeruginosa; read-out: Activity (MIC), strain NPAE1288, MDR Clinical isolate): < 16 µg/mL | MIC (P. aeruginosa; read-out: Activity (MIC), strain NPAE1293, MDR Clinical isolate): < 16 µg/mL | MIC (P. aeruginosa; read-out: Activity (MIC), strain NPAE1299, MDR Clinical isolate): < 16 µg/mL | MIC (P. aeruginosa; read-out: Activity (MIC), strain NPAE1302, MDR Clinical isolate): < 16 µg/mL | MIC (P. aeruginosa; read-out: Activity (MIC), strain NPAE1303, MDR Clinical isolate): < 16 µg/mL | MIC (P. aeruginosa; read-out: Activity (MIC), strain NPAE1308, MDR Clinical isolate): > 16 µg/mL | MIC (P. aeruginosa; read-out: Activity (MIC), strain NPAE1310, MDR Clinical isolate): < 16 µg/mL | MIC (P. aeruginosa; read-out: Activity (MIC), strain NPAE1313, MDR Clinical isolate): < 16 µg/mL | MIC (P. aeruginosa; read-out: Activity (MIC), strain NPAE1316, MDR Clinical isolate): < 16 µg/mL | MIC (P. aeruginosa; read-out: Activity (MIC), strain NPAE1323, MDR Clinical isolate): < 16 µg/mL | MIC (P. aeruginosa; strain NPAE0001, WT Aph(3')-IIb, QC, read-out: Activity (MIC)): < 16 µg/mL | MIC (P. aeruginosa; strain NPAE0002, WT Aph(3')-IIb, read-out: Activity (MIC)): < 16 µg/mL | MIC (P. aeruginosa; strain NPAE0359, aph(3')-IIb KO (tetR), read-out: Activity (MIC)): < 16 µg/mL | MIC (P. mirabilis): < 16 µg/mL | MIC (S. enterica): < 16 µg/mL | MIC [1]: ≤ 16 µg/mL
